Measurements published in patent US9951065B2 (Gilead Sciences, Inc., priority 2015, dated 2018).

What follows are compounds tested against T1, IDO1 (Homo sapiens, UniProt P14902) (assay: Cell-based (HeLa) assay for measurement of IDO1 inhibition (kynurenine levels in supernatant after IFNγ induction)). Conditions: HeLa cells, IFNγ-induced IDO1, kynurenine in supernatant after 48 hour incubation; geometric mean of a minimum of four determinations.
T1 construct: HeLa cells were treated with a test compound in the presence of IFNγ, which induces IDO1 expression; host or cells: H1-HeLa cells, IDO1 induced with IFNγ
In short: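 IDO1 activity is read as kynurenine released into the medium, detected with Ehrlich's reagent (p-dimethylaminobenzaldehyde) at 480 nm after TCA treatment. HeLa cells were exposed 48 h to compounds in 0.5% DMSO alongside IFNγ induction. Values normalized to no-IFNγ and IFNγ controls; four-parameter EC50 given as geometric mean of ≥4 determinations.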

T1 sequence (P14902 whole entry): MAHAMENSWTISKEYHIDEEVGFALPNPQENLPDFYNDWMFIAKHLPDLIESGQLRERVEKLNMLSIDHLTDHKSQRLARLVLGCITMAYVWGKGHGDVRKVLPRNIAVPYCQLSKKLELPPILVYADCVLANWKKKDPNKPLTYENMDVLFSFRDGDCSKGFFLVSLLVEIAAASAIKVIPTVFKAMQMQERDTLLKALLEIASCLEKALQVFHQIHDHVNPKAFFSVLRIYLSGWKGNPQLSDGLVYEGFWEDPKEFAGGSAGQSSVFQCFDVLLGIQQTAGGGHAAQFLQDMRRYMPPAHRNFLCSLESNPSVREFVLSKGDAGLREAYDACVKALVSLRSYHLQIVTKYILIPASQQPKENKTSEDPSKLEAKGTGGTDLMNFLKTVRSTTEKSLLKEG

SMILES | EC50
O/N=C(\Nc1ccc(F)c(Cl)c1)c1ccnc2nc(CNc3ncccn3)[nH]c12 [Example 182, N-(3-Chloro-4-fluorophenyl)-N′-hydroxy-2-((pyrimidin-2-ylamino)methyl)-1H-imidazo[4,5-b]pyridine-7-carboximidamide] | 6400 nM
CNCCNc1nc2nccc(/C(=N/O)Nc3ccc(F)c(Cl)c3)c2[nH]1 [Example 216, N-(3-chloro-4-fluorophenyl)-N′-hydroxy-2-((2-(methylamino)ethyl)amino)-1H-imidazo[4,5-b]pyridine-7-carboximidamide] | 2010 nM
O/N=C(\Nc1ccc(F)c(Cl)c1)c1ccnc2nc(NC3CC(F)(F)C3)[nH]c12 [Example 162, N-(3-Chloro-4-fluorophenyl)-2-((3,3-difluorocyclobutyl)amino)-N′-hydroxy-1H-imidazo[4,5-b]pyridine-7-carboximidamide] | 4020 nM
CC(=O)NCCc1nc2nccc(/C(=N/O)Nc3ccc(F)c(Cl)c3)c2[nH]1 [Example 270, N-(2-(7-(N-(3-chloro-4-fluorophenyl)-N′-hydroxycarbamimidoyl)-1H-imidazo[4,5-b]pyridin-2-yl)ethyl)acetamide] | > 10000 nM
O/N=C(\Nc1ccc(F)c(Cl)c1)c1ccnc2nc(CCN3CC[C@H](O)C3)[nH]c12 [Example 261, (S)—N-(3-chloro-4-fluorophenyl)-N′-hydroxy-2-(2-(3-hydroxypyrrolidin-1-yl)ethyl)-1H-imidazo[4,5-b]pyridine-7-carboximidamide] | 3450 nM
O/N=C(\Nc1ccc(F)c(Cl)c1)c1ccc(Br)c2nc[nH]c12 [Example 12, 4-Bromo-N-(3-chloro-4-fluorophenyl)-N′-hydroxy-1H-benzo[d]imidazole-7-carboximidamide] | 660 nM
CC(C)(C)CNCc1nc2nccc(/C(=N/O)Nc3ccc(F)c(Cl)c3)c2[nH]1 [Example 141, N-(3-Chloro-4-fluorophenyl)-N′-hydroxy-2-((neopentylamino)methyl)-1H-imidazo[4,5-b]pyridine-7-carboximidamide] | 1680 nM
C#Cc1cccc(N/C(=N\O)c2ccnc3nc[nH]c23)c1 [Example 95, N-(3-ethynylphenyl)-N′-hydroxy-1H-imidazo[4,5-b]pyridine-7-carboximidamide] | 302 nM
O/N=C(\Nc1cc(Br)ccc1F)c1ccnc2nc[nH]c12 [Example 71, N-(5-Bromo-2-fluorophenyl)-N′-hydroxy-1H-imidazo[4,5-b]pyridine-7-carboximidamide] | 207 nM
CS(=O)(=O)NCCc1nc2nccc(/C(=N/O)Nc3ccc(F)c(Cl)c3)c2[nH]1 [Example 266, N-(3-chloro-4-fluorophenyl)-N′-hydroxy-2-(2-(methylsulfonamido)ethyl)-1H-imidazo[4,5-b]pyridine-7-carboximidamide] | > 10000 nM
O/N=C(\Nc1ccc(F)c(Cl)c1)c1ccnc2nc(CNCc3nccs3)[nH]c12 [Example 144, N-(3-Chloro-4-fluorophenyl)-N′-hydroxy-2-(((thiazol-2-ylmethyl)amino)methyl)-1H-imidazo[4,5-b]pyridine-7-carboximidamide] | 8230 nM
O/N=C(\Nc1ccc(F)c(Cl)c1)c1ccnc2nc(CCN3CC[C@@H](O)C3)[nH]c12 [Example 260, (R)—N-(3-chloro-4-fluorophenyl)-N′-hydroxy-2-(2-(3-hydroxypyrrolidin-1-yl)ethyl)-1H-imidazo[4,5-b]pyridine-7-carboximidamide] | 3210 nM
COc1ccc(CNCCc2nc3nccc(/C(=N/O)Nc4ccc(F)c(Cl)c4)c3[nH]2)c(OC)c1 [Example 274, N-(3-chloro-4-fluorophenyl)-2-(2-((2,4-dimethoxybenzyl)amino)ethyl)-N′-hydroxy-1H-imidazo[4,5-b]pyridine-7-carboximidamide] | 1970 nM
CCNc1nc2nccc(/C(=N/O)Nc3ccc(F)c(Cl)c3)c2[nH]1 [Example 163, N-(3-Chloro-4-fluorophenyl)-2-(ethylamino)-N′-hydroxy-1H-imidazo[4,5-b]pyridine-7-carboximidamide] | 1080 nM
COCCCNCc1nc2c(/C(=N/O)Nc3ccc(F)c(Cl)c3)cc(F)c(F)c2[nH]1 [Example 45, N-(3-Chloro-4-fluorophenyl)-6,7-difluoro-N′-hydroxy-2-(((3-methoxypropyl)amino)methyl)-1H-benzo[d]imidazole-4-carboximidamide] | 1320 nM
CC(C)NCCc1nc2nccc(/C(=N/O)Nc3ccc(F)c(Cl)c3)c2[nH]1 [Example 205, N-(3-chloro-4-fluorophenyl)-N′-hydroxy-2-(2-(isopropylamino)ethyl)-3H-imidazo[4,5-b]pyridine-7-carboximidamide] | 2820 nM

Other lines, results leading:

EC50 | SMILES
> 10000 nM | O/N=C(\Nc1ccc(F)c(Cl)c1)c1cc(F)c(F)c2nc(NC3CC(O)C3)[nH]c12 (centres unmarked) [Example 296, N-(3-chloro-4-fluorophenyl)-4,5-difluoro-N′-hydroxy-2-((3-hydroxycyclobutyl)amino)-1H-benzo[d]imidazole-7-carboximidamide]
2740 nM | Nc1nc2c(F)c(F)cc(/C(=N/O)Nc3ccc(F)c(Cl)c3)c2[nH]1 [Example 13, 2-Amino-N-(3-chloro-4-fluorophenyl)-4,5-difluoro-N′-hydroxy-1H-benzo[d]imidazole-7-carboximidamide]
136 nM | CN(C)CCNc1nc2c(F)c(F)cc(/C(=N/O)Nc3ccc(F)c(Cl)c3)c2[nH]1 [Example 43, N-(3-Chloro-4-fluorophenyl)-2-((2-(dimethylamino)ethyl)amino)-4,5-difluoro-N′-hydroxy-1H-benzo[d]imidazole-7-carboximidamide]
570 nM | Nc1nc2c(F)c(F)cc(/C(=N/O)Nc3cccc(Br)c3)c2[nH]1 [Example 15, 2-Amino-N-(3-bromophenyl)-4,5-difluoro-N′-hydroxy-1H-benzo[d]imidazole-7-carboximidamide]
1520 nM | COCCNc1nc2c(F)c(F)cc(/C(=N/O)Nc3ccc(F)c(Cl)c3)c2[nH]1 [Example 40, N-(3-Chloro-4-fluorophenyl)-4,5-difluoro-N′-hydroxy-2-((2-methoxyethyl)amino)-1H-benzo[d]imidazole-7-carboximidamide]
1090 nM | CNCCc1nc2c(/C(=N/O)Nc3ccc(F)c(Cl)c3)cc(F)c(F)c2[nH]1 [Example 57, N-(3-Chloro-4-fluorophenyl)-6,7-difluoro-N′-hydroxy-2-(2-(methylamino)ethyl)-1H-benzo[d]imidazole-4-carboximidamide]

Same assay, conditions: HeLa cells, IFNγ-induced IDO1, kynurenine in supernatant, 48 hour incubation; geometric mean of a minimum of four determinations

SMILES | EC50
COCCN1CCC(Nc2nc3c(F)c(F)cc(/C(=N/O)Nc4ccc(F)c(Cl)c4)c3[nH]2)C1 (centres unmarked) [Example 454, N-(3-chloro-4-fluorophenyl)-4,5-difluoro-N′-hydroxy-2-((1-(2-methoxyethyl)pyrrolidin-3-yl)amino)-1H-benzo[d]imidazole-7-carboximidamide] | 247 nM
CC1CN(CCNc2nc3nccc(/C(=N/O)Nc4ccc(F)c(Cl)c4)c3[nH]2)C(C)CO1 (centres unmarked) [Example 485, N-(3-chloro-4-fluorophenyl)-2-((2-(2,5-dimethylmorpholino)ethyl)amino)-N′-hydroxy-1H-imidazo[4,5-b]pyridine-7-carboximidamide] | 639 nM
CN1CCCCC1CCNc1nc2c(F)c(F)cc(/C(=N/O)Nc3ccc(F)c(Cl)c3)c2[nH]1 (centres unmarked) [Example 355, N-(3-chloro-4-fluorophenyl)-4,5-difluoro-N′-hydroxy-2-((2-(1-methylpiperidin-2-yl)ethyl)amino)-1H-benzo[d]imidazole-7-carboximidamide] | 2020 nM
CC1CCN(C)C(CNc2nc3c(F)c(F)cc(/C(=N/O)Nc4ccc(F)c(Cl)c4)c3[nH]2)C1 (centres unmarked) [Example 466, N-(3-chloro-4-fluorophenyl)-2-(((1,4-dimethylpiperidin-2-yl)methyl)amino)-4,5-difluoro-N′-hydroxy-1H-benzo[d]imidazole-7-carboximidamide] | 685 nM
CO[C@@H]1CN(C)C[C@H]1Nc1nc2nccc(/C(=N/O)Nc3ccc(F)c(Cl)c3)c2[nH]1 [Example 479, N-(3-chloro-4-fluorophenyl)-N′-hydroxy-2-(((3R,4R)-4-methoxy-1-methylpyrrolidin-3-yl)amino)-1H-imidazo[4,5-b]pyridine-7-carboximidamide] | 1070 nM

Second part, the compound after the results:

EC50 | SMILES
568 nM | O/N=C(\Nc1ccc(F)c(Cl)c1)c1cc(F)c(F)c2nc(NCCN3CC[C@H](O)C3)[nH]c12 [Example 452, (S)—N-(3-chloro-4-fluorophenyl)-4,5-difluoro-N′-hydroxy-2-((2-(3-hydroxypyrrolidin-1-yl)ethyl)amino)-1H-benzo[d]imidazole-7-carboximidamide]
> 10000 nM | O/N=C(\Nc1ccc(F)c(Cl)c1)c1cc(F)c(F)c2nc(NCC3CCCNC3)[nH]c12 (centres unmarked) [Example 304, N-(3-chloro-4-fluorophenyl)-4,5-difluoro-N′-hydroxy-2-((piperidin-3-ylmethyl)amino)-1H-benzo[d]imidazole-7-carboximidamide]
2450 nM | CC1(C)CNC1CNc1nc2c(F)c(F)cc(/C(=N/O)Nc3ccc(F)c(Cl)c3)c2[nH]1 (centres unmarked) [Example 472, N-(3-chloro-4-fluorophenyl)-2-(((3,3-dimethylazetidin-2-yl)methyl)amino)-4,5-difluoro-N′-hydroxy-1H-benzo[d]imidazole-7-carboximidamide]
1210 nM | CN1CCCC1CCNc1nc2c(F)c(F)cc(/C(=N/O)Nc3ccc(F)c(Cl)c3)c2[nH]1 (centres unmarked) [Example 354, N-(3-chloro-4-fluorophenyl)-4,5-difluoro-N′-hydroxy-2-((2-(1-methylpyrrolidin-2-yl)ethyl)amino)-1H-benzo[d]imidazole-7-carboximidamide]
1390 nM | NCCNc1nc2c(F)c(F)cc(/C(=N/O)Nc3ccc(F)c(Cl)c3)c2[nH]1 [Example 333, 2-((2-aminoethyl)amino)-N-(3-chloro-4-fluorophenyl)-4,5-difluoro-N′-hydroxy-1H-benzo[d]imidazole-7-carboximidamide]
